Structures are written as SMILES.

Consider `CO/C=C(/C(=O)OC)c1ccccc1COc1nc(C(F)(F)F)sc1C`, for which the melting point turned out to be 59 °C.

The melting point is the temperature of the solid-liquid transition.

The record behind these values is patent publication US7166620B2 (dated 2007).
